This assay deals with T1, recombinant human soluble TNFRI (Homo sapiens, UniProt P19438).
T1 construct: rHusTNFRI (22–211), prepared as a chimeric protein; Fc portion of human IgG1; 6x histidine; purchased ProSpec-Tany TechnoGene Ltd (Rehovot, Israel)
T1 sequence (P19438 22-211): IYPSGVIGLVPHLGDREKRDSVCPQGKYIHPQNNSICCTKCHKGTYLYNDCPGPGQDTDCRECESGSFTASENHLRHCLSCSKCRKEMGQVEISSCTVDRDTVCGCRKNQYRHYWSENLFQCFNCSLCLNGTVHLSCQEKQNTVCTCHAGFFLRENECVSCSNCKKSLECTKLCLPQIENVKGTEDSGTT
The assay is described as follows: Inhibition of biotin-labelled TNF70–80 binding to immobilised soluble TNFRI. The settings on record: tested at 1 mM in the presence of 10 μM biotinylated TNF70–80. As to the method:
Microtitre plates were coated with 100 μl/well of 3 μg/ml rHusTNFRI (ProSpec-Tany TechnoGene Ltd, Rehovot, Isreal) in 18MQ-cm H2O overnight at 4 °C and blocked with 1% BSA and 0.05% Tween-20 in PBS for 1 h at 4 °C. Aliquot of 10 μM of biotin-labelled TNF70–80 (Auspep Pty, Ltd., Tullamarine, VIC, Australia) plus various concentrations of unlabelled TNF70–80 or control peptide were added to each well and incubated for 3 h at 4 °C. The wells were washed four times with wash buffer (PBS containing 0.05% Tween-20) and the plates were incubated with 100 μl/well of poly-horseradish peroxidase streptavidin conjugate (1/6000 dilution in 1% BSA and 0.05% Tween-20 in PBS) for 45 min at 4 °C. Wells were washed four times with wash buffer and bound enzyme detected by the addition of 3′,3′,5′,5′-tetramethylbenzidine (TMB) substrate (Sigma-Aldrich, Castle Hill, NSW, Australia). Absorbance was measured using dual filter at 570/450 nm on a Dynatech MR700 Plate Reader (Guernsey, Channel Islands).

In the case of “GGDPGIVTH [scrambled peptide (GGDPGIVTH), control peptide of TNF70–80 (…)]”, the “binding to immobilised TNFR1 (competition with biotinylated TNF70–80)” value is recorded as “Lack of binding”.

The values above are taken from PMC5893557, “Small tumor necrosis factor receptor biologics inhibit the tumor necrosis factor-p38 signalling axis and inflammation” (Nature Communications, 2018).
